Test results as given in ChEMBL document CHEMBL4190187, “Discovery of pyrazolopyrimidine derivatives as novel inhibitors of ataxia telangiectasia and rad3 related protein (ATR)” (Bioorg Med Chem Lett, 2017).

Assays:
[1] = target: Dual specificity mitogen-activated protein kinase kinase 2 (Homo sapiens) (UniProt P36507); assay: Inhibition of recombinant full-length human MEK2 at 1 uM using MBP as substrate after 40 mins in presence of [gamma-33P]ATP by scintillation counting method
[2] = target: 3-phosphoinositide-dependent protein kinase 1 (Homo sapiens) (UniProt O15530); assay: Inhibition of recombinant human PDK1 (52 to end residues) at 1 uM using KTFCGTPEYLAPEVRREPRILSEEEQEMFRDFDYIADWC (PDKtide) as substrate after 40 mins in presence of [gamma-33P]ATP by scintillation counting method
[3] = target: Activin receptor type-1 (Homo sapiens) (UniProt Q04771); assay: Inhibition of recombinant human ALK2 (147 to end residues) at 1 uM using casein as substrate after 40 mins in presence of [gamma-33P]ATP by scintillation counting method
Activin receptor type-1 (Homo sapiens), sequence (Q04771 whole entry): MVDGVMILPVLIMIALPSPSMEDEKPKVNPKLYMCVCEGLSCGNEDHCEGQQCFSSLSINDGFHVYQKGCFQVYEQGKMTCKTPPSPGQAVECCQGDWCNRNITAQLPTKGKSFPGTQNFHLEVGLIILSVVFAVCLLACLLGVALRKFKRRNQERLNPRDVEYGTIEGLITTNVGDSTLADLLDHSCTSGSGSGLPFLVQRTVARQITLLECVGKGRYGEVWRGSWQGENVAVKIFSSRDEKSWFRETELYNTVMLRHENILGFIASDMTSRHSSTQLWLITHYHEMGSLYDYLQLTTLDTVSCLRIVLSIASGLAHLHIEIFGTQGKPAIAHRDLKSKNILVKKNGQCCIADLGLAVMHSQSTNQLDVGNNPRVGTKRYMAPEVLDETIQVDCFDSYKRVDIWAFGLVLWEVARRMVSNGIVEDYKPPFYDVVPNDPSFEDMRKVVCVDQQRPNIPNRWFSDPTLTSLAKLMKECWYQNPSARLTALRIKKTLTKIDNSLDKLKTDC

[4] = target: CDK9/cyclin T1 (Homo sapiens) (UniProt O60563+P50750); assay: Inhibition of recombinant full-length human CDK9/Cyclin T1 at 1 uM using KTFCGTPEYLAPEVRREPRILSEEEQEMFRDFDYIADWC as substrate after 40 mins in presence of [gamma-33P]ATP by scintillation counting method; format: protein-complex assay
[5] = target: Tyrosine-protein kinase ABL2 (Homo sapiens) (UniProt P42684); assay: Inhibition of recombinant human ARG (38 to end residues) at 1 uM using EAIYAAPFAKKK as substrate after 40 mins in presence of [gamma-33P]ATP by scintillation counting method
[6] = target: Protein-tyrosine kinase 6 (Homo sapiens) (UniProt Q13882); assay: Inhibition of recombinant full-length human BRK at 1 uM using poly(Glu,Tyr) 4:1 as substrate after 40 mins in presence of [gamma-33P]ATP by scintillation counting method
Protein-tyrosine kinase 6 (Homo sapiens), sequence (Q13882 whole entry, looked up, the tested form may be a part): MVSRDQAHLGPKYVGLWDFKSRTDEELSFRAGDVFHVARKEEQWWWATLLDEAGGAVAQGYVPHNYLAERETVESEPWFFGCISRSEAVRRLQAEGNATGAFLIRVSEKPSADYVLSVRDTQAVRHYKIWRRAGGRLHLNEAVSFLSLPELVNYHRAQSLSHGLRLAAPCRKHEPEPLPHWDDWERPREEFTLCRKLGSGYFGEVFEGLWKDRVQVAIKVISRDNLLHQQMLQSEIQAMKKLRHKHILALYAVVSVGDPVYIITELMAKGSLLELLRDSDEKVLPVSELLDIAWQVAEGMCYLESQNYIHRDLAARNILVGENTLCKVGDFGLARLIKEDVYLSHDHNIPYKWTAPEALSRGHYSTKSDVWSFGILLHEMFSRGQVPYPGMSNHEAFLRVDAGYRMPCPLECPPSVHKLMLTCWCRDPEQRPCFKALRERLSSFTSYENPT

[7] = target: Serine/threonine-protein kinase PLK2 (Homo sapiens) (UniProt Q9NYY3); assay: Inhibition of recombinant human Snk (65 to 409 residues) at 1 uM using casein as substrate after 40 mins in presence of [gamma-33P]ATP by scintillation counting method
[8] = target: Aurora kinase A (Homo sapiens) (UniProt O14965); assay: Inhibition of recombinant full-length human Aurora-A at 1 uM using LRRASLG (kemptide) as substrate after 40 mins in presence of [gamma-33P]ATP by scintillation counting method
[9] = target: Receptor-interacting serine/threonine-protein kinase 1 (Homo sapiens) (UniProt Q13546); assay: Inhibition of recombinant human RIPK1 (8 to 322 residues) at 1 uM using myelin basic protein as substrate after 120 mins in presence of [gamma-33P]ATP by scintillation counting method
Receptor-interacting serine/threonine-protein kinase 1 (Homo sapiens), sequence (Q13546 whole entry, the tested form may be a part): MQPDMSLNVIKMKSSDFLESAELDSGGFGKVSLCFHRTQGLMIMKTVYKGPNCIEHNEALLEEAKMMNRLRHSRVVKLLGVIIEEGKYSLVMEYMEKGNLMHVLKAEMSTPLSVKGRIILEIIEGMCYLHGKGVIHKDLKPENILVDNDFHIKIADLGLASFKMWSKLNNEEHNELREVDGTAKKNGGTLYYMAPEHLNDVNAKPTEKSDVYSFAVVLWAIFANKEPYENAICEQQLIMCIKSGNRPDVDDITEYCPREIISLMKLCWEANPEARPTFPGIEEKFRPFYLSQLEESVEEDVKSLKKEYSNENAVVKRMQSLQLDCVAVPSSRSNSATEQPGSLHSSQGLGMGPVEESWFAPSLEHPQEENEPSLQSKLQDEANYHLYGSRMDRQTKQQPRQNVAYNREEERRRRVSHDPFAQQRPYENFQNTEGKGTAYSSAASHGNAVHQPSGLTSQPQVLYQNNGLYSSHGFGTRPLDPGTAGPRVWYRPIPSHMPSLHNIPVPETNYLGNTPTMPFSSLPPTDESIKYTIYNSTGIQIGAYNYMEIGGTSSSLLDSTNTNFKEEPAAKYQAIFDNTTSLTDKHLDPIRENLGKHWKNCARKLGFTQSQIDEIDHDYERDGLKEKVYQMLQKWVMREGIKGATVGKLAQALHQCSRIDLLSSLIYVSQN

[10] = target: Serine-protein kinase ATM (Homo sapiens) (UniProt Q13315); assay: Inhibition of recombinant full-length human ATM at 1 uM using GST-cMyc-p53 as substrate after 40 mins in presence of [gamma-33P]ATP by scintillation counting method
[11] = target: Tyrosine-protein kinase HCK (Homo sapiens) (UniProt P08631); assay: Inhibition of recombinant human activated Hck (230 to 497 residues) at 1 uM using GGMEDIYFEFMGGKKK as substrate after 40 mins in presence of [gamma-33P]ATP by scintillation counting method
[12] = target: Fibroblast growth factor receptor 2 (Homo sapiens) (UniProt P21802); assay: Inhibition of recombinant human FGFR2 (456 to 770 residues) at 1 uM using poly(Glu,Tyr) 4:1 as substrate after 40 mins in presence of [gamma-33P]ATP by scintillation counting method
[13] = target: Focal adhesion kinase 1 (Homo sapiens) (UniProt Q05397); assay: Inhibition of recombinant human FAK (411 to 686 residues) at 1 uM using EEEEYEEEEEEYYIIEEEEEEYEEEEEEYYEEEEEEKKKK as substrate after 40 mins in presence of [gamma-33P]ATP by scintillation counting method
[14] = system: Macrophage colony-stimulating factor 1 receptor (Homo sapiens), P07333 [Y969C]; assay: Inhibition of recombinant human Fms Y969C mutant (538 to end residues) at 1 uM using EEEEYEEEEEEYYIIEEEEEEYEEEEEEYYEEEEEEKKKK as substrate after 40 mins in presence of [gamma-33P]ATP by scintillation counting method
Macrophage colony-stimulating factor 1 receptor (Homo sapiens), P07333 [Y969C], sequence (P07333 whole entry Y969C): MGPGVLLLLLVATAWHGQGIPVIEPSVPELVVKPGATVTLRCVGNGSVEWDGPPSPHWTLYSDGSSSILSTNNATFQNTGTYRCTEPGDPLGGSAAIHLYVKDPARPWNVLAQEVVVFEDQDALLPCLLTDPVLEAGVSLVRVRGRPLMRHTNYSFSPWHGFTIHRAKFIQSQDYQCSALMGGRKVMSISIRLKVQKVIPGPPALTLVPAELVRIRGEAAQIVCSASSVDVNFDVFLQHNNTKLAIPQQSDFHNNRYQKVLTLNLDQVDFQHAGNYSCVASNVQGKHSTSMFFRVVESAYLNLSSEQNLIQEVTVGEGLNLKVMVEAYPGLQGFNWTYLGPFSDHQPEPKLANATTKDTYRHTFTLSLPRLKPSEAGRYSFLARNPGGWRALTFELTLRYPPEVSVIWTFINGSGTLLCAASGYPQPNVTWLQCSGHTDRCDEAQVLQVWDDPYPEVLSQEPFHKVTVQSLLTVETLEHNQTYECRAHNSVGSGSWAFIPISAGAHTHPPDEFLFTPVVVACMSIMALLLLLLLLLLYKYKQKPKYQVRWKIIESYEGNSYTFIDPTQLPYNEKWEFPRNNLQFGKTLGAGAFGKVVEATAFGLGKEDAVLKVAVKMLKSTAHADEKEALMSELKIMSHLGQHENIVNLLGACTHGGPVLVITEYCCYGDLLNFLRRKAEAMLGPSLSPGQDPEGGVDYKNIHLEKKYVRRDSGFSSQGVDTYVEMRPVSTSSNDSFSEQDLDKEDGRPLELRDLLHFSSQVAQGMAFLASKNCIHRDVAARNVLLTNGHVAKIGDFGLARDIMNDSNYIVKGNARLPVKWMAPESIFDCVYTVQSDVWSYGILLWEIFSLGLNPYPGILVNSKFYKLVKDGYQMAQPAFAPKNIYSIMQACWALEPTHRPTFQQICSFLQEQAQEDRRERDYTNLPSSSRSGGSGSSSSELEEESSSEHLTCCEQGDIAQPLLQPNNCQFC

[15] = target: Serine/threonine-protein kinase 32A (Homo sapiens) (UniProt Q8WU08); assay: Inhibition of recombinant full-length human STK32A at 1 uM using casein as substrate after 120 mins in presence of [gamma-33P]ATP by scintillation counting method
[16] = target: Non-receptor tyrosine-protein kinase TYK2 (Homo sapiens) (UniProt P29597); assay: Inhibition of recombinant human TYK2 (875 to end residues) at 1 uM using GGMEDIYFEFMGGKKK as substrate after 40 mins in presence of [gamma-33P]ATP by scintillation counting method
[17] = target: Serine/threonine-protein kinase 24 (Homo sapiens) (UniProt Q9Y6E0); assay: Inhibition of recombinant human MST3 (1 to 304 residues) at 1 uM using ERMRPRKRQGSVRRRV as substrate after 40 mins in presence of [gamma-33P]ATP by scintillation counting method
Serine/threonine-protein kinase 24 (Homo sapiens), sequence (Q9Y6E0 whole entry, looked up, the tested form may be a part): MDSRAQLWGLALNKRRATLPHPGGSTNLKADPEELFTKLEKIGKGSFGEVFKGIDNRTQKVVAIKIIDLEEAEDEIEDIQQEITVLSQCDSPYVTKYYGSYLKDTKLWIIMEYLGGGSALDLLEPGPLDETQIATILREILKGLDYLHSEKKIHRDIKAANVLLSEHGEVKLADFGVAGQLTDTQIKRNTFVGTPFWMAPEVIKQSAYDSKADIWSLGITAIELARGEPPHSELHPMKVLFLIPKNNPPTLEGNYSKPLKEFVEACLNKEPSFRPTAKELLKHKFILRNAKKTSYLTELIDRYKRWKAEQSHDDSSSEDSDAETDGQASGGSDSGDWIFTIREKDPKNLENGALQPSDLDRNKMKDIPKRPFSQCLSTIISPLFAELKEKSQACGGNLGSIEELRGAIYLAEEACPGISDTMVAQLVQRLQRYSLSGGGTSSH

[18] = target: Ephrin type-A receptor 8 (Homo sapiens) (UniProt P29322); assay: Inhibition of recombinant human EPHA8 (615 to 911 residues) at 1 uM using KTFCGTPEYLAPEVRREPRILSEEEQEMFRDFDYIADWC as substrate after 40 mins in presence of [gamma-33P]ATP by scintillation counting method
Ephrin type-A receptor 8 (Homo sapiens), sequence (P29322 whole entry, the tested form may be a part): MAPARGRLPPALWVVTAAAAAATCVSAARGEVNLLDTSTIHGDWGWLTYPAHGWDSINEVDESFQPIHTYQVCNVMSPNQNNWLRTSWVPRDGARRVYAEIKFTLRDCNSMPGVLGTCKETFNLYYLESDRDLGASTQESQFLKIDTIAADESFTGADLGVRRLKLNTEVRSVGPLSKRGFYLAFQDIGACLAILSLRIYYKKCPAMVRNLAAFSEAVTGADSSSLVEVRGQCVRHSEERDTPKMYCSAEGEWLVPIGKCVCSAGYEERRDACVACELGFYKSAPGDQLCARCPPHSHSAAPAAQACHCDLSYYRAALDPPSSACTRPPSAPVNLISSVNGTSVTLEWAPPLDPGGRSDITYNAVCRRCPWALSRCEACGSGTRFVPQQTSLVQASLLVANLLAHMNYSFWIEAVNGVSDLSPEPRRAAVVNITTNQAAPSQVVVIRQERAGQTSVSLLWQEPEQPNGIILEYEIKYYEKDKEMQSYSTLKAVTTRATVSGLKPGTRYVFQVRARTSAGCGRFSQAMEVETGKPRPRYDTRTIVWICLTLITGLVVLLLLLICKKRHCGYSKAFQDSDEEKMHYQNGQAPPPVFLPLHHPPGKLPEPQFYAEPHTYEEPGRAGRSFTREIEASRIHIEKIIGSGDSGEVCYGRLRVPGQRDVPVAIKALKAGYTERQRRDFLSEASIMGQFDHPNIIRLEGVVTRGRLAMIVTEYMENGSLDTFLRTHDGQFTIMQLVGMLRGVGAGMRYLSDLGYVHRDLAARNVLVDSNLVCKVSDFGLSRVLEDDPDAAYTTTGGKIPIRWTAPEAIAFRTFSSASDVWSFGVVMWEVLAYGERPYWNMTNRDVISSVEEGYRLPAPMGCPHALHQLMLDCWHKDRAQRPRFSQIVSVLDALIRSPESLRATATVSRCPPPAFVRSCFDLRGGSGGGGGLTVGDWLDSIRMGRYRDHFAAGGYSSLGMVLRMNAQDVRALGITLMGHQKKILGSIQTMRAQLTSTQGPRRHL

[19] = target: Mitogen-activated protein kinase 12 (Homo sapiens) (UniProt P53778); assay: Inhibition of recombinant full-length human SAPK3 at 1 uM using myelin basic protein as substrate after 40 mins in presence of [gamma-33P]ATP by scintillation counting method
Mitogen-activated protein kinase 12 (Homo sapiens), sequence (P53778 whole entry): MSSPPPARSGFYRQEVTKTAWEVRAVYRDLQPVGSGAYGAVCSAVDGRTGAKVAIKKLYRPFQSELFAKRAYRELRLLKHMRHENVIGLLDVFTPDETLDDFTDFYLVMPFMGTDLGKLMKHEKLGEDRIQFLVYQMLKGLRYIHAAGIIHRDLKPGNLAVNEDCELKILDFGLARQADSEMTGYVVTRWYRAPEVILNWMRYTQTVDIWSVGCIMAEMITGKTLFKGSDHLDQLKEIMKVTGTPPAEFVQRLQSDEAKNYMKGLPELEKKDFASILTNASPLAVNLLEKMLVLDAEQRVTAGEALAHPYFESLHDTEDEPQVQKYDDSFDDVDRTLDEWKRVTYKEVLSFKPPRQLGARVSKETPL

[20] = system: Hepatocyte growth factor receptor (Homo sapiens), P08581 [M1268T]; assay: Inhibition of recombinant human Met M1268T mutant (974 to end residues) at 1 uM using KKKGQEEEYVFIE as substrate after 40 mins in presence of [gamma-33P]ATP by scintillation counting method
[21] = system: Platelet-derived growth factor receptor alpha (Homo sapiens), P16234 [V561D]; assay: Inhibition of recombinant human PDGFRalpha V561D mutant (550 to end residues) at 1 uM using GGMEDIYFEFMGGKKK as substrate after 40 mins in presence of [gamma-33P]ATP by scintillation counting method
[22] = target: Casein kinase I isoform gamma-2 (Homo sapiens) (UniProt P78368); assay: Inhibition of recombinant human CK1gamma2 (18 to end residues) at 1 uM using KRRRALS(p)VASLPGL s substrate after 40 mins in presence of [gamma-33P]ATP by scintillation counting method
[23] = target: CDK3/Cyclin E (Homo sapiens) (UniProt P24864+Q00526); assay: Inhibition of recombinant full-length human CDK3/Cyclin E at 1 uM using histone H1 as substrate after 40 mins in presence of [gamma-33P]ATP by scintillation counting method; format: protein-complex assay

Dual specificity mitogen-activated protein kinase kinase 2 (Homo sapiens), sequence (P36507 whole entry): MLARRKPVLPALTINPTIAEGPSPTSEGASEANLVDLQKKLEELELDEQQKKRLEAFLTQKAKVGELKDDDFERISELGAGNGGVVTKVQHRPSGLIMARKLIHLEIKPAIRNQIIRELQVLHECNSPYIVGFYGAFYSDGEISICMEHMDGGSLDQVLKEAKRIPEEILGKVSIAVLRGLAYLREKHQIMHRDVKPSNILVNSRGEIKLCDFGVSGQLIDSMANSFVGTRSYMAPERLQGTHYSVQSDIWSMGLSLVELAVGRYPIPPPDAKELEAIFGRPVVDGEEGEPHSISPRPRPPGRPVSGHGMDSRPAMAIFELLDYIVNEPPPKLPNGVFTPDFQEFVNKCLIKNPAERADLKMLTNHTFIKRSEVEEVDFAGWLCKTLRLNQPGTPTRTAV

CS(=O)(=O)c1ccc(-n2nc(-c3cnc4[nH]ccc4c3)c3c(N)ncnc32)cc1
inhibition [1]: -7%
inhibition [2]: -6%
inhibition [3]: 0%
inhibition [4]: 7%
inhibition [5]: 61%
inhibition [6]: 102%
inhibition [7]: -6%
inhibition [8]: 15%
inhibition [9]: 18%
inhibition [10]: 28%
inhibition [11]: 93%
inhibition [12]: 17%
inhibition [13]: 3%
inhibition [14]: 69%
inhibition [15]: 6%
inhibition [16]: 8%
inhibition [17]: 13%
inhibition [18]: 15%
inhibition [19]: 2%
inhibition [20]: -2%
inhibition [21]: 66%
inhibition [22]: 18%
inhibition [23]: -6%
